Experimental data: PubChem BioAssay (NCI)
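Step 1: Grow cells in 96-well plates. Step 2: Expose to compound for 48 hours at 5 concentrations. Step 3: Interpolate endpoints linearly; if unreached, use highest concentration. At the GI50, growth is halved. TGI denotes the concentration required for complete inhibition of growth.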

Assays:
Test in all cases: inhibition of tumour cell growth, NCI panel, 48 h
KM12 colon = system: KM12 colon
CAKI-1 renal = system: CAKI-1 renal
OVCAR-5 ovarian = system: OVCAR-5 ovarian
SNB-19 CNS = system: SNB-19 CNS
ACHN renal = system: ACHN renal
SNB-75 CNS = system: SNB-75 CNS
MDA-MB-231 breast = system: MDA-MB-231 breast
UACC-62 melanoma = system: UACC-62 melanoma
UO-31 renal = system: UO-31 renal
RXF 393 renal = system: RXF 393 renal

CN1C(=O)c2c(ccc3c2OCO3)C2C(O)Cc3cc4c(cc3C21)OCO4 (stereo unspecified)
TGI (KM12 colon): 21.6 µM | TGI (CAKI-1 renal): 81.7 µM | TGI (OVCAR-5 ovarian): > 100 µM | TGI (SNB-19 CNS): > 100 µM | TGI (ACHN renal): > 100 µM | TGI (SNB-75 CNS): 5.13 µM | TGI (MDA-MB-231 breast): 18.3 µM | TGI (UACC-62 melanoma): > 100 µM | TGI (UO-31 renal): > 100 µM

NS(=O)(=O)c1ccc(NC(=O)c2ccc(NC3=C(Cl)C(=O)N(Cc4ccccc4)C3=O)cc2)cc1
GI50 (KM12 colon): 48.7 µM | TGI (KM12 colon): > 100 µM | GI50 (CAKI-1 renal): 14.8 µM | TGI (CAKI-1 renal): 29.3 µM | GI50 (OVCAR-5 ovarian): 15.5 µM | TGI (OVCAR-5 ovarian): 33.1 µM | GI50 (SNB-19 CNS): > 100 µM | TGI (SNB-19 CNS): > 100 µM | GI50 (ACHN renal): 13.7 µM | TGI (ACHN renal): 26.6 µM | GI50 (MDA-MB-231 breast): 2.65 µM | TGI (MDA-MB-231 breast): 8.11 µM | GI50 (UO-31 renal): 79.3 µM | TGI (UO-31 renal): > 100 µM

CCC(C)CN1C(=O)NC(C)(Cc2ccccc2)C1=O (stereo unspecified)
TGI (KM12 colon): > 100 µM | TGI (CAKI-1 renal): > 100 µM | TGI (OVCAR-5 ovarian): > 100 µM | TGI (SNB-19 CNS): > 100 µM | TGI (ACHN renal): > 100 µM | TGI (SNB-75 CNS): > 100 µM | TGI (RXF 393 renal): > 100 µM | TGI (UO-31 renal): > 100 µM

Cc1ccc(C(=O)O/N=C2/CCCC/C2=C\c2ccccc2)cc1
TGI (KM12 colon): > 100 µM | TGI (CAKI-1 renal): > 100 µM | TGI (OVCAR-5 ovarian): > 100 µM | TGI (SNB-19 CNS): > 100 µM | TGI (ACHN renal): > 100 µM | TGI (SNB-75 CNS): > 100 µM | TGI (RXF 393 renal): > 100 µM | TGI (UACC-62 melanoma): > 100 µM | TGI (UO-31 renal): 31.5 µM

COc1cc2c(cc1O)C=NCC2
TGI (KM12 colon): > 100 µM | TGI (CAKI-1 renal): > 100 µM | TGI (OVCAR-5 ovarian): > 100 µM | TGI (SNB-19 CNS): > 100 µM | TGI (ACHN renal): > 100 µM | TGI (SNB-75 CNS): > 100 µM | TGI (UACC-62 melanoma): > 100 µM | TGI (UO-31 renal): > 100 µM

N#Cc1cccc(N2C(=O)c3c(c(-c4ccccc4)c(-c4ccc(Sc5ccc(-c6c(-c7ccccc7)c7c(c(-c8ccccc8)c6-c6ccccc6)C(=O)N(c6cccc(C#N)c6)C7=O)cc5)cc4)c(-c4ccccc4)c3-c3ccccc3)C2=O)c1
TGI (KM12 colon): > 100 µM | TGI (OVCAR-5 ovarian): > 100 µM | TGI (SNB-19 CNS): > 100 µM | TGI (ACHN renal): > 100 µM | TGI (RXF 393 renal): 59.2 µM | TGI (UACC-62 melanoma): > 100 µM | TGI (UO-31 renal): > 100 µM

CCC[CH2][Sn]([CH2]CCC)([O]C(=O)c1c(F)cccc1F)[O]C(=O)c1c(F)cccc1F
GI50 (KM12 colon): 1.51 µM | TGI (KM12 colon): 2.83 µM | GI50 (CAKI-1 renal): 0.38 µM | TGI (CAKI-1 renal): 1.7 µM | GI50 (OVCAR-5 ovarian): 1.34 µM | TGI (OVCAR-5 ovarian): 2.61 µM | GI50 (SNB-19 CNS): 1.29 µM | TGI (SNB-19 CNS): 2.56 µM | GI50 (ACHN renal): 0.763 µM | TGI (ACHN renal): 2.01 µM | GI50 (SNB-75 CNS): 0.509 µM | TGI (SNB-75 CNS): 1.82 µM | GI50 (RXF 393 renal): 0.242 µM | TGI (RXF 393 renal): 0.844 µM | GI50 (UACC-62 melanoma): 0.884 µM | TGI (UACC-62 melanoma): 2.1 µM | GI50 (UO-31 renal): 1.31 µM | TGI (UO-31 renal): 2.59 µM

COc1cc2c(/C=N\N=C(N)N)c(Cl)[nH]c2cc1C
GI50 (KM12 colon): 7.17 µM | TGI (KM12 colon): 22.6 µM | GI50 (CAKI-1 renal): 17 µM | TGI (CAKI-1 renal): 32.7 µM | GI50 (OVCAR-5 ovarian): 15.2 µM | TGI (OVCAR-5 ovarian): 29 µM | GI50 (SNB-19 CNS): 12.7 µM | TGI (SNB-19 CNS): 29.2 µM | GI50 (ACHN renal): 11.1 µM | TGI (ACHN renal): 23.6 µM | GI50 (MDA-MB-231 breast): 6.4 µM | TGI (MDA-MB-231 breast): 20.8 µM | GI50 (RXF 393 renal): 14.8 µM | TGI (RXF 393 renal): 30.1 µM | GI50 (UACC-62 melanoma): 12 µM | TGI (UACC-62 melanoma): 24.6 µM | GI50 (UO-31 renal): 27.5 µM | TGI (UO-31 renal): 84.6 µM

O=C(NCCCCCCCCNC(=O)c1cnc2ccccc2n1)c1cnc2ccccc2n1
TGI (KM12 colon): > 100 µM | TGI (CAKI-1 renal): > 100 µM | TGI (OVCAR-5 ovarian): > 100 µM | TGI (SNB-19 CNS): > 100 µM | TGI (ACHN renal): > 100 µM | TGI (SNB-75 CNS): > 100 µM | TGI (RXF 393 renal): > 100 µM | TGI (UACC-62 melanoma): > 100 µM | TGI (UO-31 renal): > 100 µM

Nc1ncnc2c1ncn2C1OC(COP(=O)(O)CP(=O)(O)O)C(O)C1O (stereo unspecified)
TGI (KM12 colon): > 100 µM | TGI (CAKI-1 renal): > 100 µM | TGI (OVCAR-5 ovarian): > 100 µM | TGI (SNB-19 CNS): > 100 µM | TGI (ACHN renal): > 100 µM | TGI (SNB-75 CNS): > 100 µM | TGI (RXF 393 renal): > 100 µM | TGI (UACC-62 melanoma): > 100 µM | TGI (UO-31 renal): > 100 µM

CCCCCCCCCCCOC(=S)NC(C)C
TGI (KM12 colon): 37.7 µM | TGI (CAKI-1 renal): 39.9 µM | TGI (OVCAR-5 ovarian): 52.5 µM | TGI (SNB-19 CNS): > 100 µM | TGI (ACHN renal): 35.9 µM | TGI (SNB-75 CNS): 62.8 µM | TGI (RXF 393 renal): 42.9 µM | TGI (UACC-62 melanoma): 31.1 µM | TGI (UO-31 renal): 32.2 µM

COc1ccc(/C(=N/NC(N)=O)C2(O)C(=O)Nc3ccc([N+](=O)[O-])cc32)cc1 (stereo unspecified)
TGI (KM12 colon): 49.5 µM | TGI (CAKI-1 renal): 57.7 µM | TGI (OVCAR-5 ovarian): 81.2 µM | TGI (SNB-19 CNS): > 10 µM | TGI (ACHN renal): 30.6 µM | TGI (SNB-75 CNS): 69.8 µM | TGI (UACC-62 melanoma): 43.6 µM | TGI (UO-31 renal): 34.8 µM

N=C(c1ccccc1)N(c1ccccc1)c1ccccc1
TGI (KM12 colon): > 100 µM | TGI (CAKI-1 renal): > 100 µM | TGI (OVCAR-5 ovarian): > 100 µM | TGI (SNB-19 CNS): > 100 µM | TGI (SNB-75 CNS): > 100 µM | TGI (RXF 393 renal): > 100 µM | TGI (UO-31 renal): > 100 µM

FC(F)(F)C1(Cl)C(c2ccccc2)=C1c1ccccc1
TGI (KM12 colon): 29 µM | TGI (CAKI-1 renal): 25.3 µM | TGI (OVCAR-5 ovarian): 31.3 µM | TGI (SNB-19 CNS): 31.9 µM | TGI (ACHN renal): 30.2 µM | TGI (RXF 393 renal): 26.6 µM | TGI (UACC-62 melanoma): 27 µM | TGI (UO-31 renal): 31.9 µM

C=CCC1OC(C)(C)Oc2ccc(OCOCCOC)cc21 (stereo unspecified)
TGI (KM12 colon): > 100 µM | TGI (CAKI-1 renal): > 100 µM | TGI (OVCAR-5 ovarian): > 100 µM | TGI (SNB-19 CNS): > 100 µM | TGI (ACHN renal): > 100 µM | TGI (SNB-75 CNS): > 100 µM | TGI (RXF 393 renal): > 100 µM | TGI (UACC-62 melanoma): > 100 µM | TGI (UO-31 renal): > 100 µM

O=C(O)CN(c1ccccc1)S(=O)(=O)c1ccc(NC(=O)c2ccccc2)cc1
TGI (CAKI-1 renal): > 100 µM | TGI (OVCAR-5 ovarian): > 100 µM | TGI (SNB-19 CNS): > 100 µM | TGI (ACHN renal): > 100 µM | TGI (SNB-75 CNS): > 100 µM | TGI (RXF 393 renal): > 100 µM | TGI (UACC-62 melanoma): > 100 µM | TGI (UO-31 renal): > 100 µM

COc1ccc(S(=O)(=O)NC(C)C(=O)O)cc1 (stereo unspecified)
TGI (KM12 colon): > 100 µM | TGI (CAKI-1 renal): > 100 µM | TGI (OVCAR-5 ovarian): > 100 µM | TGI (SNB-19 CNS): > 100 µM | TGI (ACHN renal): > 100 µM | TGI (SNB-75 CNS): > 100 µM | TGI (RXF 393 renal): > 100 µM | TGI (UACC-62 melanoma): > 100 µM | TGI (UO-31 renal): > 100 µM

CC1=CC2CC(C)=C(CC[C@]3(C)CC[C@H]([C@@H](C)C(=O)O)OO3)C(C)(C)C2CC1 (stereo partly specified)
TGI (KM12 colon): 0.316 µM | TGI (CAKI-1 renal): 2.76 µM | TGI (OVCAR-5 ovarian): 3.8 µM | TGI (SNB-19 CNS): 3.08 µM | TGI (ACHN renal): 2.64 µM | TGI (SNB-75 CNS): 2.29 µM | TGI (RXF 393 renal): 1.09 µM | TGI (UACC-62 melanoma): 2.81 µM | TGI (UO-31 renal): 2.23 µM

COc1cc(C(=O)OCCCCCCCCCCC[P+](c2ccccc2)(c2ccccc2)c2ccccc2)ccc1O
GI50 (CAKI-1 renal): 1.64 µM | TGI (CAKI-1 renal): 3.18 µM | GI50 (OVCAR-5 ovarian): 1.59 µM | TGI (OVCAR-5 ovarian): 3.25 µM | GI50 (ACHN renal): 1.46 µM | TGI (ACHN renal): 2.99 µM | GI50 (MDA-MB-231 breast): 0.301 µM | TGI (MDA-MB-231 breast): 1.16 µM | GI50 (UACC-62 melanoma): 0.768 µM | TGI (UACC-62 melanoma): 2.44 µM | GI50 (UO-31 renal): 1.69 µM | TGI (UO-31 renal): 3.17 µM

CC[P+](C)(Cc1ccccc1)c1ccccc1 (stereo unspecified)
TGI (KM12 colon): > 100 µM | TGI (OVCAR-5 ovarian): > 100 µM | TGI (SNB-19 CNS): > 100 µM | TGI (ACHN renal): > 100 µM | TGI (SNB-75 CNS): > 100 µM | TGI (RXF 393 renal): > 100 µM | TGI (UACC-62 melanoma): > 100 µM | TGI (UO-31 renal): > 100 µM
